We go through 1 compound from patent US9775904B2 (priority 2014, dated 2017).

Read-outs that look alike come from different tables or passages of the source.

The series in a line: Solubility testing in buffer (HPLC-UV). The format is physicochemical. On the procedure: Prior to the testing of solubility and stability of a peptide batch, its purity (HPLC-UV) was determined.
. Therefore, solutions from solid samples were prepared in different buffer systems with a concentration of 10 mg/mL compound based on the previously determined % purity. HPLC-UV was performed after 2 h of gentle agitation from the supernatant, which was obtained by 20 min of centrifugation at 4500 rpm.
[…]. This analysis also served as starting point (t0) for the stability testing.

For `CCCCCCCCCCCCCCCC(=O)N[C@@H](CCC(=O)N[C@@H](CCC(=O)NCCCC[C@H](NC(=O)[C@H](CCC(N)=O)NC(=O)[C@H](CCCCN)NC(=O)[C@H](CO)NC(=O)[C@H](CC(C)C)NC(=O)[C@H](CC(=O)O)NC(=O)[C@H](CO)NC(=O)[C@@H](NC(=O)[C@H](Cc1ccccc1)NC(=O)[C@@H](NC(=O)CNC(=O)[C@H](CCC(N)=O)NC(=O)C(C)(C)NC(=O)[C@@H](N)Cc1c[nH]cn1)[C@@H](C)O)[C@@H](C)O)C(=O)N[C@@H](CC(=O)O)C(=O)N[C@@H](CCC(=O)O)C(=O)N[C@@H](CCC(N)=O)C(=O)N[C@@H](CCCNC(=N)N)C(=O)N[C@@H](C)C(=O)N[C@@H](CCCCN)C(=O)N[C@@H](CC(C)C)C(=O)N[C@@H](Cc1ccccc1)C(=O)N[C@H](C(=O)N[C@@H](CCC(=O)O)C(=O)N[C@@H](Cc1c[nH]c2ccccc12)C(=O)N[C@@H](CC(C)C)C(=O)NC(C)(C)C(=O)N[C@@H](CCCCN)C(=O)N[C@H](C)C(=O)NCC(=O)N1CCC[C@H]1C(=O)N[C@@H](CO)C(=O)N[C@@H](CO)C(=O)NCC(=O)N[C@@H](C)C(=O)N1CCC[C@H]1C(=O)N1CCC[C@H]1C(=O)N1CCC[C@H]1C(=O)N[C@@H](CO)C(N)=O)[C@@H](C)CC)C(=O)O)C(=O)O` [SEQ ID NO: 14, H-Aib-Q-G-T-F-T-S-D-L-S-K-Q-K(γE-γE-x53)-D-E-Q-R-A-K-L-F-I-E-W-L-Aib-K-dAla-G-P-S-S-G-A-P-P-P-S-NH2], the solubility at 2 h (pH 4.5, target concentration 10 mg/ml, read-out: solubility [mg/ml] pH 4.5) is > 8 mg/mL and the solubility at 2 h (pH 7.4, target concentration 10 mg/ml, read-out: solubility [mg/ml] pH 7.4) is > 8 mg/mL.
